From patent publication US8778966B2, “Quinolinone derivatives as PARP and tank inhibitors” (Janssen Pharmaceutica, NV, priority 2007, dated 2014)

Tests used:
[1] = molecular target: T1, Human PARP-1 enzyme (Homo sapiens, UniProt P09874); assay: In vitro Scintillation Proximity Assay (SPA) for PARP-1 inhibitory activity; type: biochemical; settings: read-out: in vitro SPA assay PARP-1 pIC50 (converted)
T1 construct: purchased Trevigen
Method: Compounds of the present invention were tested in an in vitro assay based on SPA technology (proprietary to GE healthcare).
In principle, the assay relies upon the well established SPA technology for the detection of poly(ADP-ribosyl)ation of biotinylated target proteins, i.e histones. This ribosylation is induced using nicked DNA activated PARP-1 enzyme and [^3H]-nicotinamide adenine dinucleotide ([^3H]-NAD^+) as ADP-ribosyl donor.
Histones (type II-A, supplier: Sigma) were biotinylated using the biotinylation kit of Amersham and stored aliquoted at −20° C. A stock solution of 100 mg/ml SPA poly(vinyl toluene) (PVT) beads (supplier: Amersham) was made in PBS. A stock solution of 61.6 nM [^3H]-NAD^+ was made by adding [^3H]-NAD^+ (0.1 mCi/ml, supplier: Perkin Elmer) to incubation buffer (50 mM Tris/HCl, pH 8; 0.2 mM DTT; 4 mM MgCl2). A solution of 4 mM NAD^+ (supplier: Sigma) was made. Human PARP-1 enzyme was obtained from Trevigen. Biotinylated histones and PVT-SPA beads were mixed and pre-incubated for 30 min. at room temperature. PARP-1 enzyme (concentration was lot dependent) was mixed with the nicked DNA and the mixture was pre-incubated for 30 min. at 4° C. Equal parts of this histones/PVT-SPA beads solution and PARP-1 enzyme/DNA solution were mixed and 75 μl of this mixture together with 1 μl of compound in DMSO and 25 μl of [^3H]-NAD^+ was added per well into a 96-well microtiterplate. The final concentrations in the incubation mixture were 2 μg/ml for the biotinylated histones, 2 mg/ml for the PVT-SPA beads, 0.25 μg/ml for the nicked DNA and between 0.1-0.2 μg/ml for the PARP-1 enzyme. After incubation of the mixture for 20 min. at room temperature, the reaction was terminated by adding 100 μl of 4 mM NAD^+ in water (final concentration 2 mM) and plates were mixed. The beads were sedimented by centrifugation (10 min, 800 rpm). and plates transferred to a TopCountNXT™ (Packard) for scintillation counting, values were expressed as counts per minute (cpm). For each experiment, controls (containing PARP-1 enzyme and DMSO without compound), a blank incubation (containing DMSO but no PARP-1 enzyme, no DNA or compound) and samples (containing PARP-1 enzyme, DNA and compound dissolved in DMSO) were run in parallel. All compounds tested were dissolved and eventually further diluted in DMSO. A dose-response curve was made wherein the compounds were tested at concentrations between 10^−5M and 3×10^−9M. In each test, the blank value was subtracted from both the control and the sample values. The control sample represented maximal PARP-1 enzyme activity. For each sample, the amount of cpm was expressed as a percentage of the mean cpm value of the controls. When appropriate, IC50-values (concentration of the drug, needed to reduce the PARP-1 enzyme activity to 50% of the control) were computed using linear interpolation between the experimental points just above and below the 50% level. Herein the effects of test compounds are expressed as pIC50 (the negative log value of the IC50-value). As a reference compound, 4-amino-1,8-naphthalimide was included to validate the SPA assay.

[2] = system: HCT116 cells; assay: Antiproliferative activity, Alamar Blue assay, HCT116 cells; type: cell-based, human; parameters: key to HCT116 antiproliferative activity pIC50: pIC50 = -log IC50 (IC50: conc. reducing growth to 50% of control); settings: for IC50: Homo sapiens, HCT-116, HCT116 cells, read-out: HCT116 antiproliferative activity pIC50 (converted)
Method: Human colon carcinoma HCT116 cells obtained from the ATCC were cultured in McCoy's 5 A medium supplemented with 2 mM L-Glutamine, 50 μg/ml gentamicin and 10% heat inactivated fetal calf serum.
(§1) Resazurin was purchased from Aldrich (Prod. No. 199303). Potassium ferrocyanide, potassium ferricyanide, KH2PO4 and K2HPO4 were purchased from Sigma (Prod. Nos. P9387, P8131, P5655 and P8281, respectively).
(§2) Potassium Phosphate Buffer 0.1 M (PPB) was made as follows: 2.72 gram KH2PO4 and 13.86 gram K2HPO4 were dissolved in 500 ml milli-Q H2O, the pH was adjusted to pH 7.4 and the volume was brought to 1 litre with milli-Q H2O; the buffer was filter sterilised and stored at room temperature. Resazurin stock solution (PPB-A) was prepared fresh by dissolving 45 mg resazurin in 15 ml PBS. 30 mM potassium ferricyanide (PPB-B) was prepared by dissolving 0.987 gram potassium ferricyanide in 100 ml PPB. 30 mM potassium ferrocyanide (PPB-C) was prepared by dissolving 1.266 gram potassium ferrocyanide in 100 ml PPB.
(§3) Mixture of PPB-A, PPB-B and PPB-C was prepared by mixing equal volumes of the respective solutions. Resazurin work solution (herein termed “Alamar Blue” solution) was prepared by diluting said mixture 20×(vol/vol) in PPB and filter sterilising; the Alamar Blue solution could be kept at 4° C. for a maximum of 2 weeks.
(§4) For experiments in 384 wells plates the cells were seeded at a density of 4.5×10^3 cells/ml in Falcon 384-well culture plates (Life Technologies, Merelbeke, Belgium), black with clear bottom, in 45 μl culture medium. Cells were allowed to adhere to plastic for 24 hr. The tested compound was pre-diluted (1/50 in culture medium) and 5 μl pre-diluted compound was added to the wells. Following 4-day incubation, 10 μl of the Alamar Blue solution was added to each well and the cells were further incubated for 4 hrs (HCT116) or 24 hrs (PC-3) at 37° C. The fluorescence intensity was measured for each well on a Fluorescence plate reader (Fluorskan, Labsystems, 540 nm excitation and 590 nm emission)
(§5) The antiproliferative activity was calculated as percentage of remaining viable cells in treated versus control (untreated cells) conditions. Within an experiment, the result for each experimental condition is the mean of 3 replicate wells. When appropriate, the experiments were repeated to establish full concentration-response curves. When appropriate, IC50-values (concentration of the drug, needed to reduce cell growth to 50% of the control) were computed using probit analysis for graded data (Finney, D. J., Probit Analyses, 2nd Ed. Chapter 10, Graded Responses, Cambridge University Press, Cambridge 1962). Herein the effects of test compounds are expressed as pIC50 (the negative log value of the IC50-value) (see Table 2).

[3] = system: PC-3 cells; assay: Antiproliferative activity, Alamar Blue assay, PC-3 cells; type: cell-based, human; settings: for IC50: Homo sapiens, PC-3, PC3 cells, read-out: PC3 antiproliferative activity pIC50 (converted)
Method: Human prostate cancer PC-3 cells obtained from the ATCC were cultured in HAM′S F12 medium supplemented with 1 mM Sodium Pyruvate, 1.5 g/L Sodium Bicarbonate, 50 μg/ml gentamicin, non-essential amino acids and 10% fetal calf serum.
as §1, §2, §3, §4, §5

[4] = system: PC3 cells; assay: EB1 Comet (microtubule disruption) assay; type: cell-based, human; settings: 1 hour treatment
Method: The Eb1 Comet assay relies on the detection of the Eb1 protein at the plus end of polymerizing microtubules (Mimori-Kiyosue, 2000) using indirect immunofluorescence. Disruption of microtubule dynamics through de-polymerization or stabilization results in a de-localization of Eb1 from the growing microtubule ends and this is visualized by the disappearance of Eb1 containing cytoplasmic foci.
Briefly, human prostate cancer PC3 cells obtained from the American Type Culture Collection were grown in 96-well plates (Greiner, cat. no. 655090) in HAM's F12 medium as recommended by the provider (ATCC). The cells were treated for 1 hour at 37° C. with compounds dissolved in DMSO (0.6% final DMSO concentration). The culture medium was then removed by aspiration and the cells were fixed by adding cold methanol (−20 C). After a 15 min. incubation at −20 C, the cells were washed twice with DPBS (Gibco) containing 0.5% Triton X-100. Mouse Eb1 antibody (BD Transduction Laboratories, cat. no. 610534) was added to the cells (1/250 dilution in DPBS containing 1% BSA) and incubated overnight at room temperature. The antibody was subsequently removed and the cells washed twice with DPBS, 0.5% Triton X-100. Secondary goat anti-mouse antibody conjugated to Alexa 488 fluorescent dye (Molecular Probes) was added at a 1/500 dilution in DPBS, 1% BSA and incubated for 1 hour at 37 C. The cells were washed twice with DPBS, 0.5% Triton X-100 and then DPBS containing 0.5% Triton X-100 and 1/5000 Hoechst 33342 (Molecular Probes) was added. Microscopy based Eb1 foci visualization was carried out using an IN Cell Analyser 1000 (Amersham Biosciences) using a 20× objective. Compound dependent microtubule disruption was visually determined by the disappearance in Eb1 foci. The lowest active concentration (LAC) was determined as the concentration where Eb1 foci were absent in at least 50% of the treated cells.

[5] = molecular target: T2, TANK-2 enzyme (Homo sapiens, UniProt Q9H2K2); assay: In vitro Scintillation Proximity Assay (SPA) for TANK-2 inhibitory activity; type: biochemical; settings: read-out: in vitro SPA assay TANK-2 pIC50 (converted)
T2 construct: made in house
T2 sequence (Q9H2K2 1-1166): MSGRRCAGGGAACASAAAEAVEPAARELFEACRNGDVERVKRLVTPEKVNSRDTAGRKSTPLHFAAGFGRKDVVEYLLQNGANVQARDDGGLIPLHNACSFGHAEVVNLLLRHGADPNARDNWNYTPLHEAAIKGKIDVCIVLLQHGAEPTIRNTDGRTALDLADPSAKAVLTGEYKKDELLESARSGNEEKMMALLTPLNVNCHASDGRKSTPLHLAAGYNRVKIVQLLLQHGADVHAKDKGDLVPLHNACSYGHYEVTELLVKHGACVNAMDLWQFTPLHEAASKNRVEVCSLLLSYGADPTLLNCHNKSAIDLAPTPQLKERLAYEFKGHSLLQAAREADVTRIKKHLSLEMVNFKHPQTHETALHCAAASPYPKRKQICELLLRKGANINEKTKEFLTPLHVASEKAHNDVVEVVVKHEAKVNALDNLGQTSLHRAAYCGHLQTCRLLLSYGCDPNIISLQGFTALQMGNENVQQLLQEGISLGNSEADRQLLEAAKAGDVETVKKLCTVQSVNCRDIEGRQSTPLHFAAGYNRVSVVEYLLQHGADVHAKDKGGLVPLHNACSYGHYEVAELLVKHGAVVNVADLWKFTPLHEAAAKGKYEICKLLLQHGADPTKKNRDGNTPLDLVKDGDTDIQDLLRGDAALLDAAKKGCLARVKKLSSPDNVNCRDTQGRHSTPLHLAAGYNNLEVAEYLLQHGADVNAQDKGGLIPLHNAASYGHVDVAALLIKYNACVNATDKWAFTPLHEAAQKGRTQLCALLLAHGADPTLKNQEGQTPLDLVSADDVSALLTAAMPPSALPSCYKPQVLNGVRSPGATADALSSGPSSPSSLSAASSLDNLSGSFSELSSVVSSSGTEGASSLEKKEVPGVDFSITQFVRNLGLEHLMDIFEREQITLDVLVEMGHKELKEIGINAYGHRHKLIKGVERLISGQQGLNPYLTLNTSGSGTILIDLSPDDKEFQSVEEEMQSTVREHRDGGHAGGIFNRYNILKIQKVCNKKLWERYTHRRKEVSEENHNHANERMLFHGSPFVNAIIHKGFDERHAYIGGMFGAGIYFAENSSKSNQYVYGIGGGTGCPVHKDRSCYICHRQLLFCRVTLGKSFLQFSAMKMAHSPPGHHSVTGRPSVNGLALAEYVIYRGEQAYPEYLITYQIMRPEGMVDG
Method: Compounds of the present invention were tested in an in vitro assay based on SPA technology with Ni Flash plates (96 or 384 well). In principle, the assay relies upon SPA technology for the detection of auto-poly(ADP-ribosyl)ation of TANK-2 protein using [^3H]-nicotinamide adenine dinucleotide ([^3H]-NAD^+) as ADP-ribosyl donor.
A stock solution of 100 nM [3H]-NAD^+/NAD (0.1 mCi/ml, supplier: Perkin Elmer) and 0.25 μM NAD (Sigma) was made in assay buffer (60 mM Tris/HCl, pH 7.4; 0.9 mM DTT; 6 mM MgCl2). The TANK-2 enzyme was produced as described in EP1238063. 60 μl of assay buffer, together with 1 μl of compound in DMSO, 20 μl of [^3H]-NAD^+/NAD and 20 μl of TANK-2 enzyme (final concentration 8 μg/ml) was added per well into a 96-well Ni-coated flash plate (Perkin Elmer). After incubation of the mixture for 120 min. at room temperature, the reaction was terminated by adding 60 μl of stopsolution (42.6 mg NAD in 6 ml H2O). The plates were covered with a plate sealer and placed in a TopCountNXT™ (Packard) for scintillation counting. Values were expressed as counts per minute (cpm). For each experiment, controls (containing TANK-2 enzyme and DMSO without compound), a blank incubation (containing DMSO but no TANK-2 enzyme or compound) and samples (containing TANK-2 enzyme and compound dissolved in DMSO) were run in parallel. All compounds tested were dissolved and eventually further diluted in DMSO. In first instance, compounds were tested at a concentration of 10^−5M. […] In each test, the blank value was subtracted from both the control and the sample values. The control sample represented maximal TANK-2 enzyme activity. For each sample, the amount of cpm was expressed as a percentage of the mean cpm value of the controls. When appropriate, IC50-values (concentration of the drug, needed to reduce the TANK-2 enzyme activity to 50% of the control) were computed using linear interpolation between the experimental points just above and below the 50% level. Herein the effects of test compounds are expressed as pIC50 (the negative log value of the IC50-value). As reference compounds, 3-aminobenzamide and 4-amino-1,8-naphtalimide were included to validate the SPA assay. Herein the assay was described using 96-well plates. In the assay using 384-well plates the same final concentrations were used and volumes were adapted.

T1 sequence (P09874 whole entry): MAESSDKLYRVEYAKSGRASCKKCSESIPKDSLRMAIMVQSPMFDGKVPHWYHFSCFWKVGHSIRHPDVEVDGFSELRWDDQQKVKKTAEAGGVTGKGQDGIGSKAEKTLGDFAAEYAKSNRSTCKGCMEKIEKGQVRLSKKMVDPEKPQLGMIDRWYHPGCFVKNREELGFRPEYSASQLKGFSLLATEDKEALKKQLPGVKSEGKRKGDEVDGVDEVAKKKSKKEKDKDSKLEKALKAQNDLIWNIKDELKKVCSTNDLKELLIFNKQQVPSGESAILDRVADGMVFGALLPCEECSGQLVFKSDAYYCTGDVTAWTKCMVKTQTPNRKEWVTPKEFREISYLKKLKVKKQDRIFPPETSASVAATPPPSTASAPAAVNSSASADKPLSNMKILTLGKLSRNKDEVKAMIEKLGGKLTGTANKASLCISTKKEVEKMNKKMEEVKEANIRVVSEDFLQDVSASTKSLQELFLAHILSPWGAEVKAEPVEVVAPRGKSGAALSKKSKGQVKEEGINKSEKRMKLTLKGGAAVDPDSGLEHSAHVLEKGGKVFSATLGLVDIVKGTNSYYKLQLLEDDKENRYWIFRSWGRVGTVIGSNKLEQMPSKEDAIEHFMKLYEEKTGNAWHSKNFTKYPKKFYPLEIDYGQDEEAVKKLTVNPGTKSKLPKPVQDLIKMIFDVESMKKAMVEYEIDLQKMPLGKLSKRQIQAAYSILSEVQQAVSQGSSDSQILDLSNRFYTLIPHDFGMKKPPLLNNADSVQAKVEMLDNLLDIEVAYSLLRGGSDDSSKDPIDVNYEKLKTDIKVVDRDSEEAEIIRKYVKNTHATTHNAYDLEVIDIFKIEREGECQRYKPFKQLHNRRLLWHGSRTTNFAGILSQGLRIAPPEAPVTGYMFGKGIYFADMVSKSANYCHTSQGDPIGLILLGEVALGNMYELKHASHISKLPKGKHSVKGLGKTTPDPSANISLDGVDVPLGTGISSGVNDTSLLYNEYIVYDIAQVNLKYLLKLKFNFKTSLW

Row | Structure (SMILES) | IC50 [1] | IC50 [2] | IC50 [3] | minimal effective concentration ([4]; Homo sapiens, PC-3, 1 h, read-out: EB1 pLAC (converted)) | HCT116 antiproliferative activity pIC50 ([2]; HCT116 cells) | PC3 antiproliferative activity pIC50 ([3]; PC3 cells) | EB1 pLAC [4] | IC50 [5]
1 | Cc1cc2ccc(C(C)(C#N)Cc3cccc(C#CC(C)(C)O)n3)cc2[nH]c1=O (stereo not shown) [Compound 401] | 0.398 µM | 3.98 µM | 5.01 µM | 3.16 µM |  |  |  | 
2 | Cc1cc2ccc([C@@](C)(C#N)[C@@H]3CCc4ccc(Br)cc43)cc2[nH]c1=O [Compound 408] | 0.251 µM | 5.01 µM | 10 µM |  |  |  |  | 
3 | Cc1cc2ccc(C(C)(C#N)C3CCc4cc(Br)ccc43)cc2[nH]c1=O (stereo not shown) [Compound 243] | 0.316 µM |  |  |  | 5.4 | 5.2 | 6 | 
4 | Cc1cc2ccc([C@@](C)(C#N)[C@H]3CCCc4ccccc43)cc2[nH]c1=O [Compound 384] | 0.0501 µM |  |  |  |  |  |  | 1 µM
